This note sets out measurements from patent publication US8592448B2 (OSI Pharmaceuticals, LLC, priority 2008, dated 2013).

Read-outs that look alike come from different tables or passages of the source. Bounds are passed on as bounds.

For one assay, the target named is T1, c-Met (Homo sapiens, UniProt P08581).
T1 construct: purchased Invitrogen
Kind of assay: c-Met kinase assay (Invitrogen Z′-LYTE kinase assay platform). In kind it is biochemical. As to conditions: Z′-LYTE kinase assay at Invitrogen, ATP concentration of 100 μM. As to the method: (§1) The activities of exemplary compounds of the present invention against Ron and c-Met determined at Invitrogen using the Z′-LYTE™ kinase assay platform are shown in Table 1: A, IC50≦0.1 μM; B, 0.1 μM<IC50≦1 μM; C, 1 μM<IC50≦10 μM; D, IC50>10 μM. The assays were conducted at an ATP concentration of 100 μM. The Example # of Table 1 corresponds to the compound example number as illustrated in the Examples section.

The next assay concerns the target T2, Ron (Homo sapiens, UniProt Q04912).
T2 construct: purchased Invitrogen
In words: Ron kinase assay (Invitrogen Z′-LYTE kinase assay platform). In kind it is biochemical. As to conditions: Z′-LYTE kinase assay at Invitrogen, ATP concentration of 100 μM. The method, then:
as §1

The test system of a further assay is MKN45 cells. Kind of assay: MKN45 cell proliferation assay (CellTiter-Glo). The assay is classed as cell-based. As to conditions: MKN45 cell line, 3 days incubation, at least duplicate experiments, read-out: Prolif. IC50. In outline:
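MKN45 cells (5000/well, RPMI + 10% FCS) plated overnight, then exposed to 8-point dilution series, typically 10 μM to 0.6 nM, in 0.1% DMSO for 3 days at 37 °C. CellTiter-Glo luminescence as % of DMSO control; IC50 from four-parameter fit, at least duplicate experiments.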

The next assay has as its target T3, phosphorylated c-MET (Homo sapiens, UniProt P08581).
T3 construct: endogenous in cells; host or cells: MKN45
In words: c-MET cell mechanistic assay (phosphorylated c-MET in MKN45 cells). In kind it is cell-based. As to conditions: MKN45 cell line, four hours incubation, phosphorylated c-MET levels, at least duplicate experiments; read-out: Met mech IC50. The method, boiled down:
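MKN45 cells were treated 4 h at 37 °C with a 6-point dilution series (typically 10 μM to 3 nM; final 0.5% DMSO). Phospho-c-MET (pY1230/1234/1235) in lysates was measured by capture ELISA with HRP read-out at 450 nm. IC50 came from a four-parameter fit of percent of DMSO control.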

T1 sequence (P08581 25-1390): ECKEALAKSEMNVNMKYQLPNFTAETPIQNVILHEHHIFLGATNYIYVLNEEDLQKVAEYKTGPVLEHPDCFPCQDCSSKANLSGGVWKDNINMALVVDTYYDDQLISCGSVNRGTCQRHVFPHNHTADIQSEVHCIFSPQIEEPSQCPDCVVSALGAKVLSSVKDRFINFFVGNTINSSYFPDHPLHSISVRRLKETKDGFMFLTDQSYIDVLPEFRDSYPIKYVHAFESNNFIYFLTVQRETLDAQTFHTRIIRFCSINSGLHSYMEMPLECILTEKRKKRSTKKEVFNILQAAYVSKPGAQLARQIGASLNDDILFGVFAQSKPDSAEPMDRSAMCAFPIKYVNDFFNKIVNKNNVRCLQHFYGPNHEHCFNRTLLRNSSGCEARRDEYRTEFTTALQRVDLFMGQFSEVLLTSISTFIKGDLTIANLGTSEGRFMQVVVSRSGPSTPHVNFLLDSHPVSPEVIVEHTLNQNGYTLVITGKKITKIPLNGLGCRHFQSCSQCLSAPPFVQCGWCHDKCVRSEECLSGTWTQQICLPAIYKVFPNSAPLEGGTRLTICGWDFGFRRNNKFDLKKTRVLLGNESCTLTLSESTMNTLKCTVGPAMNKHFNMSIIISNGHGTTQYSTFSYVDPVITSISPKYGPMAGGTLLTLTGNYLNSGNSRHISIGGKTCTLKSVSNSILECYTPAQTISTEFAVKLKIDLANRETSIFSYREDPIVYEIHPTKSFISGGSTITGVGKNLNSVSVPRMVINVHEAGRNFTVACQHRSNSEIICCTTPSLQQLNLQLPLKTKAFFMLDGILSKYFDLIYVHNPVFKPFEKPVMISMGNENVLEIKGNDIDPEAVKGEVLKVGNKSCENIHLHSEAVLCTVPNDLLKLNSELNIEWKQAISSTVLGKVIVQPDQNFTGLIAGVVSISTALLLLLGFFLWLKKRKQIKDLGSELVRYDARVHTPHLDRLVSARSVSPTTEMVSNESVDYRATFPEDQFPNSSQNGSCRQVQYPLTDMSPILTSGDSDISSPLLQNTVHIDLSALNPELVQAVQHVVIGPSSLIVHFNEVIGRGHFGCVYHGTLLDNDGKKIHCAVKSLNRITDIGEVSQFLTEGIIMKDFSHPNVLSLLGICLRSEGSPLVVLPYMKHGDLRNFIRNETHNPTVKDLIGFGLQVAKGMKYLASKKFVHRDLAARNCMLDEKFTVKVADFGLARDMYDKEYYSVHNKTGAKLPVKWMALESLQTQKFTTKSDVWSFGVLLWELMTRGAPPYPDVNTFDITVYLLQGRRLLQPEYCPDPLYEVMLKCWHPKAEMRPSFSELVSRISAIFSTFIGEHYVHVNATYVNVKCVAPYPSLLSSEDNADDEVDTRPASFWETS
T3 sequence (P08581 25-1390): as above
T2 sequence (Q04912 25-1400): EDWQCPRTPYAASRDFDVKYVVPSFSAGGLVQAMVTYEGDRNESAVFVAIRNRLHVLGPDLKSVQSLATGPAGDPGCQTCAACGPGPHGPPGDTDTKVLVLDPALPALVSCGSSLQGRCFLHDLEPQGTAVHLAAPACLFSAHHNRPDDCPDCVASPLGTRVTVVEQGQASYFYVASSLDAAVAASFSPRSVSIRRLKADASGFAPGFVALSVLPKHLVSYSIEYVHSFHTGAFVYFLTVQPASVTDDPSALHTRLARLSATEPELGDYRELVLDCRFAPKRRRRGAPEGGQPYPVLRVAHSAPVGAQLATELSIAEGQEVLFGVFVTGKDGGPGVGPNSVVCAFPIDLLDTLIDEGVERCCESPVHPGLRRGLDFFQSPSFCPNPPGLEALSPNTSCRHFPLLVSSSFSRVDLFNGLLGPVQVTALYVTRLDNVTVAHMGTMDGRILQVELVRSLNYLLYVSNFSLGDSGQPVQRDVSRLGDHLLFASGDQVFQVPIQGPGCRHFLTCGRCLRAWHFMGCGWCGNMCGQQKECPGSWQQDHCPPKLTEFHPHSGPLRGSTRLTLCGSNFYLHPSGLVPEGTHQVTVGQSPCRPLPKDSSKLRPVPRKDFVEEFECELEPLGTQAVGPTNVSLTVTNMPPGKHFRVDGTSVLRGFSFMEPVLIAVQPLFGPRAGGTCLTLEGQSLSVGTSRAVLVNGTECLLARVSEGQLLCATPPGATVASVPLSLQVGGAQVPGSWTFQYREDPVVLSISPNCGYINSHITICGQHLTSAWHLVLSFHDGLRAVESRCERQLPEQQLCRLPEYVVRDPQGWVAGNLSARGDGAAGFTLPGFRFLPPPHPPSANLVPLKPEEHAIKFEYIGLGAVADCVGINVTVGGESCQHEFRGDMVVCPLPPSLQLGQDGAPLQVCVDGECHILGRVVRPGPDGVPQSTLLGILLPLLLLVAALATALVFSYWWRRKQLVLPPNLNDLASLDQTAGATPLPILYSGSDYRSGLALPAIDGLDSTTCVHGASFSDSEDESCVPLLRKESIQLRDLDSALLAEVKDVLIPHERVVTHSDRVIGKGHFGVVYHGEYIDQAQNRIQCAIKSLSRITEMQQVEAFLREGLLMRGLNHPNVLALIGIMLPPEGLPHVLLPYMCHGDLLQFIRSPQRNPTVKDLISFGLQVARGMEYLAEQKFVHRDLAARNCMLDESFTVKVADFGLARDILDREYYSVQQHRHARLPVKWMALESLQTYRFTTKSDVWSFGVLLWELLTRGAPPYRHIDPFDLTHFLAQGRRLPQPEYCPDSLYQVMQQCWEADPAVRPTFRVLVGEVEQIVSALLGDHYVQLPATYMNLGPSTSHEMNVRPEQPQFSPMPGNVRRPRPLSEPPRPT

Take `C[C@H](c1c(Cl)ccc(F)c1Cl)c1c[nH]c2ncc(-c3cnn(CCO)c3)cc12` [Example 70, 2-(4-{3-[(S)-1-(2,6-Dichloro-3-fluorophenyl)ethyl]-1H-pyrrolo[2,3-b]-pyridin-5-yl}pyrazol-1-yl)ethanol]: the IC50 was not above 100 nM at c-Met; 1000 to 10000 nM against Ron; not above 100 nM in the assay with MKN45 cells (Homo sapiens, MKN-45, 72 h); not above 100 nM on phosphorylated c-MET.
In the case of `CC(c1c(Cl)ccc(F)c1Cl)c1c[nH]c2ncc(-c3cnn(C4CCN(C=O)CC4)c3)cc12` (stereo not drawn) [Example 71, 4-(4-{3-[1-(2,6-Dichloro-3-fluorophenyl)ethyl]-1H-pyrrolo[2,3-b]pyridin-5-yl}-pyrazol-1-yl)-piperidine-1-carbaldehyde], the IC50 was not above 100 nM on c-Met, 100 to 1000 nM against Ron and not above 100 nM in the assay with MKN45 cells.
On to `CC(c1c(Cl)ccc(F)c1Cl)c1c[nH]c2ncc(-c3cnn(C4CCNCC4)c3)cc12` (stereo not drawn) [Example 2, 3-[1-(2,6-Dichloro-3-fluorophenyl)ethyl]-5-(1-piperidin-4-yl-1H-pyrazol-4-yl)-1H-pyrrolo[2,3-b]pyridine], for which the IC50 at c-Met is not above 100 nM; against Ron, not above 100 nM; in the assay with MKN45 cells (Homo sapiens, MKN-45, 72 h), not above 100 nM; on phosphorylated c-MET it was not above 100 nM.
Take `CC(c1c(Cl)cccc1Cl)c1c[nH]c2ncc(-c3cnn(C4CCNCC4)c3)cc12` (stereo not drawn) [Example 1, 3-[1-(2,6-Dichlorophenyl)ethyl]-5-(1-piperidin-4-yl-1H-pyrazol-4-yl)-1H-pyrrolo[2,3-b]pyridine]: the IC50 on c-Met is not above 100 nM; on Ron, not above 100 nM; with MKN45 cells (Homo sapiens, MKN-45, 72 h), 100 to 1000 nM; at phosphorylated c-MET it was not above 100 nM.
As to `CC(c1c(Cl)ccc(F)c1Cl)c1c[nH]c2ncc(-c3cnn(C4CCN(CC(F)(F)F)CC4)c3)cc12` (stereo not drawn) [Example 29, 3-[1-(2,6-Dichloro-3-fluorophenyl)ethyl]-5-{1-[1-(2,2,2-trifluoroethyl)-piperidin-4-yl]-1H-pyrazol-4-yl}-1H-pyrrolo[2,3-b]pyridine], the IC50 in the assay with MKN45 cells (Homo sapiens, MKN-45, 72 h) is 100 to 1000 nM; at phosphorylated c-MET, 100 to 1000 nM.
On to `CC(c1c(Cl)ccc(F)c1Cl)c1c[nH]c2ncc(C3=CCN(C(=O)N(C)C)CC3)cc12` (stereo not drawn) [Example 36, 4-{3-[1-(2,6-Dichloro-3-fluorophenyl)-ethyl]-1H-pyrrolo[2,3-b]pyridin-5-yl}-3,6-dihydro-2H-pyridine-1-carboxylic acid dimethylamide], for which the concentration for half-maximal inhibition (IC50) in the assay with MKN45 cells (Homo sapiens, MKN-45, 72 h) lay within 100 to 1000 nM; at phosphorylated c-MET, 100 to 1000 nM.
For the compound `CC(c1c(Cl)ccc(F)c1Cl)c1c[nH]c2ncc(-c3ccc(C(=O)N(C)C)cc3)cc12` (stereo not drawn) [Example 3, 4-{3-[1-(2,6-Dichloro-3-fluorophenyl)ethyl]-1H-pyrrolo[2,3-b]pyridin-5-yl}-N,N-dimethylbenzamide], the 50% inhibitory concentration (IC50) was in the range of 100 to 1000 nM with MKN45 cells (Homo sapiens, MKN-45, 72 h) and 100 to 1000 nM at phosphorylated c-MET.
As to `C[C@H](c1c(Cl)ccc(F)c1Cl)c1c[nH]c2ncc(-c3cnn(C4CCN(C(N)=O)CC4)c3)cc12` [Example 72, 4-(4-{3-[(S)-1-(2,6-Dichloro-3-fluorophenyl)ethyl]-1H-pyrrolo[2,3-b]pyridin-5-yl}-pyrazol-1-yl)-piperidine-1-carboxamide], the IC50 in the assay on MKN45 cells (Homo sapiens, MKN-45, 72 h) was not above 100 nM; on phosphorylated c-MET, not above 100 nM.
`CC(c1c(Cl)ccc(F)c1Cl)c1c[nH]c2ncc(-c3cnn(C4CCN(C(N)=O)CC4)c3)cc12` (stereo not drawn) [Example 49, 4-(4-{3-[1-(2,6-Dichloro-3-fluorophenyl)ethyl]-1H-pyrrolo[2,3-b]pyridin-5-yl}-pyrazol-1-yl)-piperidine-1-carboxamide]: the IC50 in the assay with MKN45 cells (Homo sapiens, MKN-45, 72 h) is not above 100 nM; at phosphorylated c-MET it was 100 to 1000 nM.
In the case of `CC(c1c(Cl)ccc(F)c1Cl)c1c[nH]c2ncc(-c3cnn(C(C)(C)C(N)=O)c3)cc12` (stereo not drawn) [Example 64, 2-(4-{3-[1-(2,6-Dichloro-3-fluorophenyl)ethyl]-1H-pyrrolo[2,3-b]pyridin-5-yl}-pyrazol-1-yl)-isobutyramide], the IC50 was 100 to 1000 nM in the assay with MKN45 cells (Homo sapiens, MKN-45, 72 h) and not above 100 nM on phosphorylated c-MET.
